Assay results as given in paper PMC3805374 (Life sciences, 2013).

How the values were obtained:
FLAG-mDOPR [1] = target: T1, FLAG-mDOPR (Mus musculus, UniProt P32300); type: cell-based; conditions: 10 μM pretreatment for 30 min or 24 h
ERK1/2 phosphorylation = assay: Immunoblot analysis of phosphorylated ERK1/2 in CHO-FLAG-DOPR/HA-D1R cells; type: cell-based, Chinese hamster; conditions: 10 μM for 30 min
endogenous DOPR = endogenous DOPR (Mus musculus, UniProt P32300); assay: DPDPE-stimulated [35S]GTPγS binding to membranes of NG 108-15-HA-D1R cells; type: biochemical, mouse neuroblastoma × rat glioma hybrid; conditions: NG 108-15-HA-D1R cells pretreated with 10 μM for 30 min, n=3
endogenous DOPR, sequence (P32300 whole entry): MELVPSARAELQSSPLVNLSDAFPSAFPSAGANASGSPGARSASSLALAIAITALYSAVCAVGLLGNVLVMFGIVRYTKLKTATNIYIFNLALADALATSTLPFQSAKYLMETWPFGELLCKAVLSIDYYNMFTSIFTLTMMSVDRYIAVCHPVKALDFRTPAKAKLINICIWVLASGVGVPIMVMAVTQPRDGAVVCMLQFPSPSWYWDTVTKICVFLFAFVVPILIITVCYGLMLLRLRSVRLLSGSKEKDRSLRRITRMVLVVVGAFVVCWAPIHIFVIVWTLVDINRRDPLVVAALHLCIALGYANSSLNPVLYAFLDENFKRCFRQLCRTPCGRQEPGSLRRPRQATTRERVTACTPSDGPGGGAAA

FLAG-mouse DOPR = FLAG-mouse DOPR (Mus musculus, UniProt P32300); type: biochemical; conditions: CHO-FLAG-DOPR/HA-D1R cells pretreated with 10 μM for 30 min, n=3
FLAG-mouse DOPR, sequence (P32300 whole entry): as above

FLAG-mDOPR [2] = target: T1, FLAG-mDOPR; assay: Phosphorylation of the DOPR; type: cell-based; conditions: CHO-FLAG-DOPR/HA-D1R cells; 10 μM for 30 min
D1R = D1R (Rattus norvegicus, UniProt P18901); assay: cAMP level in NG108-15/HA-D1R and CHO-FLAG-DOPR/HA-D1R cells; type: cell-based; conditions: NG108-15/HA-D1R cells and CHO-FLAG-DOPR/HA-D1R cells; data not shown
D1R, sequence (P18901 whole entry): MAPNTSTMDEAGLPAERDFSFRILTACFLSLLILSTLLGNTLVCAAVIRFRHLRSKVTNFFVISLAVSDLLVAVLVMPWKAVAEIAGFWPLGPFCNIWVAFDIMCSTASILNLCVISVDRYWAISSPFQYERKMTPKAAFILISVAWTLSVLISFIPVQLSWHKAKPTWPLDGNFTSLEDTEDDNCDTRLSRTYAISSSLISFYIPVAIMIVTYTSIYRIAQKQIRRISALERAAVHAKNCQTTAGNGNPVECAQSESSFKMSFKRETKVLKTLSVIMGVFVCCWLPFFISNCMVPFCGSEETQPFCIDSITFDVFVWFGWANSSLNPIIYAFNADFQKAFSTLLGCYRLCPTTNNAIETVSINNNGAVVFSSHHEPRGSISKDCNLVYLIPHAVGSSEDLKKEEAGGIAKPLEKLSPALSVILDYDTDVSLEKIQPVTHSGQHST

T1 sequence (P32300 whole entry): as the sequence (P32300 whole entry) above

`Br.C=CCN1CCc2c(cc(O)c(O)c2Cl)C(c2ccccc2)C1` (racemic) [SKF-82958, (±)-chloro-APB HBr] was tested, and the “Effect on total or cell surface DOPRs” value (FLAG-mDOPR [1]) was “did not affect total or cell surface DOPRs”, the “ERK1/2 phosphorylation compared with the control” value (ERK1/2 phosphorylation) was “produced a marked increase in ERK1/2 phosphorylation” and the “Basal [35S]GTPγS binding after pretreatment” value (endogenous DOPR) was 14.5 ± 1.9 fmol/mg protein. For the same compound, the “Basal [35S]GTPγS binding after pretreatment” value (FLAG-mouse DOPR) was 42.6 ± 7.0 fmol/mg protein, the “Phosphorylation of the DOPR” value (FLAG-mDOPR [2]) was “did not induce phosphorylation of the DOPR” and the cAMP level (D1R) was “dose-dependently increased cAMP level”.
